# ChEMBL document CHEMBL2311411, “Lignans from Schisandra sphenathera Rehd. et Wils. and semisynthetic schisantherin A analogues: absolute configuration, and their estrogenic and anti-proliferative activity” (Eur J Med Chem, 2013)
# Activity calls are given as the source filed them. The calls are words filed in the database; no cut-off is given here.
# What was measured:
# [1] = Toxicity in brine shrimp larvae assessed as mortality after 24 hrs by microtiter plate analysis; format: organism-based; details: artemia salina, in vivo
# [2] = Cytotoxicity against human U87 cells after 72 hrs by MTT assay; format: functional, cell-based, U-87MG ATCC
# HeLa = test: Cytotoxicity against human HeLa cells after 72 hrs by MTT assay; format: functional, cell-based
# SMMC-7721 = test: Cytotoxicity against human SMMC7721 cells after 72 hrs by MTT assay; format: functional, cell-based; details: SMMC-7721, 72 h
# [3] = Cytotoxicity against mouse LLC cells after 72 hrs by MTT assay; format: functional, cell-based; details: Lewis lung carcinoma
# [4] = biological target: T1, DNA-binding protein inhibitor ID-1 (Homo sapiens) (UniProt P41134); test: Inhibition of ID1 in human U87 cells at 100 uM by luciferase reporter gene assay; format: cell-based; details: U-87MG ATCC
# T1 sequence (whole entry): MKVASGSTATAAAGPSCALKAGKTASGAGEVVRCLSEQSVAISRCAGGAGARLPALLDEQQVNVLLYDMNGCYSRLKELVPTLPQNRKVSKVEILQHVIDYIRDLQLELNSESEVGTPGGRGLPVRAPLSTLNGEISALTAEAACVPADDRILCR
# MCF7 [5] = test: Estrogenic activity in human MCF7 cells at 5 uM by luciferase reporter gene assay; format: functional, cell-based
# MCF7 [6] = test: Estrogenic activity in human MCF7 cells at 1 uM by luciferase reporter gene assay; format: functional, cell-based
# MCF7 [7] = test: Estrogenic activity in human MCF7 cells by luciferase reporter gene assay; format: functional, cell-based
# [8] = Homo sapiens, U-87 MG, 72 h, read-out: IC50
Structure (SMILES),"IC50 [2, 8] [µM]",inhibition [4] [%],IC50 ([2]; u-87mg atcc),also measured
COc1cc2c(c(OC)c1OC)-c1c(cc3c(c1OC)OCO3)C[C@H](C)[C@]1(CO1)[C@H]2OC(=O)c1ccccc1 [SCHISANDRIN A1],> 100,–,–,LC50 at 24 h [1]: 97.5 µg/mL; IC50 (HeLa): 50.8 µM; IC50 (SMMC-7721): > 100 µM; IC50 [3]: > 100 µM
CCCCCCCC(=O)O[C@H]1c2cc(OC)c(OC)c(OC)c2-c2c(cc3c(c2OC)OCO3)C[C@H](C)[C@]1(C)O,–,57.6,Not Active,–
COc1cc([C@H]2OC[C@]3(O)[C@@H](c4ccc(O)c(OC)c4)OC[C@]23O)ccc1O,–,–,–,Activity (MCF7 [5]): Active
CCCCCCCCCCCCCC(=O)O[C@H]1c2cc(OC)c(OC)c(OC)c2-c2c(cc3c(c2OC)OCO3)C[C@H](C)[C@]1(C)O,–,21.4,Not Active,–
CCCCCC(=O)O[C@H]1c2cc(OC)c(OC)c(OC)c2-c2c(cc3c(c2OC)OCO3)C[C@H](C)[C@]1(C)O,67.4,63.7,–,–
COc1cc([C@H]2OC[C@]3(O)[C@@H](c4ccc(O)c(OC)c4)OC[C@H]23)ccc1O,–,–,–,Activity (MCF7 [5]): Active
COc1cc(C=O)c(-c2c(C[C@H](C)C(C)=O)cc3c(c2OC)OCO3)c(OC)c1OC,–,46.1,Not Active,–
COc1cc2c(c(OC)c1OC)-c1c(cc(OC)c(OC)c1OC)C[C@](C)(O)[C@@H](C)C2 [SCHIZANDRIN],> 100,–,–,LC50 at 24 h [1]: > 100 µg/mL; IC50 (HeLa): > 100 µM; IC50 (SMMC-7721): > 100 µM; IC50 [3]: > 100 µM; Activity (MCF7 [6]): Active
CCCCCCCCCCCCCCCC(=O)O[C@H]1c2cc(OC)c(OC)c(OC)c2-c2c(cc3c(c2OC)OCO3)C[C@H](C)[C@]1(C)O,–,4.8,Not Active,–
CCCCCCCCCCCC(=O)O[C@H]1c2cc(OC)c(OC)c(OC)c2-c2c(cc3c(c2OC)OCO3)C[C@H](C)[C@]1(C)O,70,32.7,–,–
C[C@]12CC[C@@H]3c4ccc(O)cc4CC[C@H]3[C@@H]1CC[C@@H]2O,–,–,–,Activity (MCF7 [7]): Dose-dependent effect
CC(=O)O[C@@H]1C[C@H](O)[C@@]23CO[C@@H](O)[C@]1(C)[C@@H]2C[C@@H](O)[C@]1(C)[C@@H]3C(=O)[C@H](OC(C)=O)[C@@]2(C)[C@H](c3ccoc3)C[C@H]3O[C@]321 [TOOSENDANIN],–,–,–,LC50 at 24 h [1]: < 1 µg/mL
CCCC(=O)O[C@H]1c2cc(OC)c(OC)c(OC)c2-c2c(cc3c(c2OC)OCO3)C[C@H](C)[C@]1(C)O,–,36.6,Not Active,–
COc1ccc([C@H]2OC[C@]3(O)[C@@H](c4ccc(OC)c(O)c4)OC[C@H]23)cc1O,–,–,–,LC50 at 24 h [1]: > 100 µg/mL
COc1cc2c(c(OC)c1OC)-c1c(cc3c(c1OC)OCO3)C[C@H](C)[C@](C)(O)[C@H]2O [SCHISANTHEROL A],–,1,Not Active,–
CCCCCCCCCC(=O)O[C@H]1c2cc(OC)c(OC)c(OC)c2-c2c(cc3c(c2OC)OCO3)C[C@H](C)[C@]1(C)O,58.8,46.9,–,–
CCCCCCC(=O)O[C@H]1c2cc(OC)c(OC)c(OC)c2-c2c(cc3c(c2OC)OCO3)C[C@H](C)[C@]1(C)O,61.7,57.8,–,–
COc1c2c(cc3c1-c1c(cc4c(c1OC)OCO4)C[C@H](C)[C@H](C)C3)OCO2 [SCHISANDRIN C],> 100,–,–,IC50 (HeLa): > 100 µM; IC50 (SMMC-7721): > 100 µM; IC50 [3]: > 100 µM
CCCCC(=O)O[C@H]1c2cc(OC)c(OC)c(OC)c2-c2c(cc3c(c2OC)OCO3)C[C@H](C)[C@]1(C)O,–,36.3,Not Active,–
